Data published in BindingDB's records for PubMed 11082457 (Centre De Recherches De Croissy, 2000).
Where “and” joins values, the source holds several entries; their conditions need not be identical. Identical values can stand only once.

Experiments:
[1] = target: T1, Amine oxidase [flavin-containing] A (Rattus norvegicus, UniProt P21396)
T1 sequence (P21396 whole entry): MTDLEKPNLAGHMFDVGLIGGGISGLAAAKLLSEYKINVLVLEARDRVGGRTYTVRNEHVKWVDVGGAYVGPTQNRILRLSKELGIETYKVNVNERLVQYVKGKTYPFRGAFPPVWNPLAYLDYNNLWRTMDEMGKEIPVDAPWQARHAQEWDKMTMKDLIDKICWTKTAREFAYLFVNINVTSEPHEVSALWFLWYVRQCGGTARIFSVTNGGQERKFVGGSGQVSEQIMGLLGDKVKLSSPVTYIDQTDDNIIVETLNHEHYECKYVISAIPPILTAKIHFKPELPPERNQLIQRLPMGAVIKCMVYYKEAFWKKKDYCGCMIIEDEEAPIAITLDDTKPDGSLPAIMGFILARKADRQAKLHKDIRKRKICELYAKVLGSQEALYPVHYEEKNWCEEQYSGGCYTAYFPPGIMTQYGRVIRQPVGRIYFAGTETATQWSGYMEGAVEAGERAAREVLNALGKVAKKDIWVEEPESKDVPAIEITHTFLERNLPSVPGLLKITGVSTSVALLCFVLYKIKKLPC

Nischarin = Nischarin (Rattus norvegicus, UniProt Q4G017)
[2] = target: T2, Alpha-2C adrenergic receptor (Homo sapiens, UniProt P18825)
T2 sequence (P18825 whole entry): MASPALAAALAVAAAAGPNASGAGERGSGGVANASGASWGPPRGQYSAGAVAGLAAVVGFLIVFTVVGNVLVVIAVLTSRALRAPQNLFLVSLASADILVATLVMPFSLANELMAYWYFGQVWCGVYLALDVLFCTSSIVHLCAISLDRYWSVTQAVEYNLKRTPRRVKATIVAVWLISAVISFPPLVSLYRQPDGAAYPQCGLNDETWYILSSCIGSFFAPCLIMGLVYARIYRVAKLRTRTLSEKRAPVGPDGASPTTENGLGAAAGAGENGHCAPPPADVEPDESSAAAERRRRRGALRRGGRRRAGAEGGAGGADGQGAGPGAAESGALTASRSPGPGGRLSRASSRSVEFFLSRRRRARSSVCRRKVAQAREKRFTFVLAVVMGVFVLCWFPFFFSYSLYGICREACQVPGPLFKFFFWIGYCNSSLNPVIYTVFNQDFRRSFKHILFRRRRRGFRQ

[3] = target: T3, Alpha-2A adrenergic receptor [16-465] (Rattus norvegicus, UniProt P22909)
T3 construct: 16-465
T3 sequence (P22909 whole entry): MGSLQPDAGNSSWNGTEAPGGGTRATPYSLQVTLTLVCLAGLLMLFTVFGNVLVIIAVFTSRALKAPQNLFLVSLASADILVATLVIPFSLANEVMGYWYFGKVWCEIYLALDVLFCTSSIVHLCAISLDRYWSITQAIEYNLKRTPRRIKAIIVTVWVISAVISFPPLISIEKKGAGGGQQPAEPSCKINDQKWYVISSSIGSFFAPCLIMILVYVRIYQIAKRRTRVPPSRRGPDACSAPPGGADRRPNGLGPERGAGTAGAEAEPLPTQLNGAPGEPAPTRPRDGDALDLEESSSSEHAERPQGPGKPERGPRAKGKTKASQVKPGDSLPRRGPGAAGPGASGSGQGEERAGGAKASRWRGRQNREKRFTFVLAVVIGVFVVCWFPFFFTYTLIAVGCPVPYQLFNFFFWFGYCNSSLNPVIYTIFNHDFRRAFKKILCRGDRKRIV

[4] = target: T4, Alpha-2A adrenergic receptor (Homo sapiens, UniProt P08913)
T4 sequence (P08913 whole entry): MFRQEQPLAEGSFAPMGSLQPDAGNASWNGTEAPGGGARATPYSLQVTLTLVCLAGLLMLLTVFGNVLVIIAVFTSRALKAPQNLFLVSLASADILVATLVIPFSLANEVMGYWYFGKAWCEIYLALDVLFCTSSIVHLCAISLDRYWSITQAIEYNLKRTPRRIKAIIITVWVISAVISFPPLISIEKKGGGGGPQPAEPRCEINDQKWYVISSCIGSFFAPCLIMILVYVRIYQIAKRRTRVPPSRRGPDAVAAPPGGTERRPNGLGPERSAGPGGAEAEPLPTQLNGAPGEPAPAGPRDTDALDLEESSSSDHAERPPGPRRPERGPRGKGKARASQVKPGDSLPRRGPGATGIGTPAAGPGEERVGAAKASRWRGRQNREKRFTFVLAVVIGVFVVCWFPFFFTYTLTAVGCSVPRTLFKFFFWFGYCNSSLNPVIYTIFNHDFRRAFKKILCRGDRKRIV

[5] = target: Beta-1 adrenergic receptor (Homo sapiens, UniProt P08588)
[6] = target: Beta-2 adrenergic receptor (Homo sapiens, UniProt P07550)
Chain of Beta-2 adrenergic receptor (P07550 whole entry): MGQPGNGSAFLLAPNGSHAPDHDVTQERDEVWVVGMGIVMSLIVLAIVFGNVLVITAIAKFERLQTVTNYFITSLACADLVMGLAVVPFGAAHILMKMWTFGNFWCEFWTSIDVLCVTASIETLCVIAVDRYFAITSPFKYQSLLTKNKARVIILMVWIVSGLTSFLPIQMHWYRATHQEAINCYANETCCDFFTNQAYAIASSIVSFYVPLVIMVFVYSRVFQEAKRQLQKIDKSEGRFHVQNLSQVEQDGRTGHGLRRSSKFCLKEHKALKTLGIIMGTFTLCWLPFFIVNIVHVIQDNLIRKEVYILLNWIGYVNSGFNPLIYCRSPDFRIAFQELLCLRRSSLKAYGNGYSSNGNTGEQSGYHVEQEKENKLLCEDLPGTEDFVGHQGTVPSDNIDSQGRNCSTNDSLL

Chain of Nischarin (Q4G017 whole entry): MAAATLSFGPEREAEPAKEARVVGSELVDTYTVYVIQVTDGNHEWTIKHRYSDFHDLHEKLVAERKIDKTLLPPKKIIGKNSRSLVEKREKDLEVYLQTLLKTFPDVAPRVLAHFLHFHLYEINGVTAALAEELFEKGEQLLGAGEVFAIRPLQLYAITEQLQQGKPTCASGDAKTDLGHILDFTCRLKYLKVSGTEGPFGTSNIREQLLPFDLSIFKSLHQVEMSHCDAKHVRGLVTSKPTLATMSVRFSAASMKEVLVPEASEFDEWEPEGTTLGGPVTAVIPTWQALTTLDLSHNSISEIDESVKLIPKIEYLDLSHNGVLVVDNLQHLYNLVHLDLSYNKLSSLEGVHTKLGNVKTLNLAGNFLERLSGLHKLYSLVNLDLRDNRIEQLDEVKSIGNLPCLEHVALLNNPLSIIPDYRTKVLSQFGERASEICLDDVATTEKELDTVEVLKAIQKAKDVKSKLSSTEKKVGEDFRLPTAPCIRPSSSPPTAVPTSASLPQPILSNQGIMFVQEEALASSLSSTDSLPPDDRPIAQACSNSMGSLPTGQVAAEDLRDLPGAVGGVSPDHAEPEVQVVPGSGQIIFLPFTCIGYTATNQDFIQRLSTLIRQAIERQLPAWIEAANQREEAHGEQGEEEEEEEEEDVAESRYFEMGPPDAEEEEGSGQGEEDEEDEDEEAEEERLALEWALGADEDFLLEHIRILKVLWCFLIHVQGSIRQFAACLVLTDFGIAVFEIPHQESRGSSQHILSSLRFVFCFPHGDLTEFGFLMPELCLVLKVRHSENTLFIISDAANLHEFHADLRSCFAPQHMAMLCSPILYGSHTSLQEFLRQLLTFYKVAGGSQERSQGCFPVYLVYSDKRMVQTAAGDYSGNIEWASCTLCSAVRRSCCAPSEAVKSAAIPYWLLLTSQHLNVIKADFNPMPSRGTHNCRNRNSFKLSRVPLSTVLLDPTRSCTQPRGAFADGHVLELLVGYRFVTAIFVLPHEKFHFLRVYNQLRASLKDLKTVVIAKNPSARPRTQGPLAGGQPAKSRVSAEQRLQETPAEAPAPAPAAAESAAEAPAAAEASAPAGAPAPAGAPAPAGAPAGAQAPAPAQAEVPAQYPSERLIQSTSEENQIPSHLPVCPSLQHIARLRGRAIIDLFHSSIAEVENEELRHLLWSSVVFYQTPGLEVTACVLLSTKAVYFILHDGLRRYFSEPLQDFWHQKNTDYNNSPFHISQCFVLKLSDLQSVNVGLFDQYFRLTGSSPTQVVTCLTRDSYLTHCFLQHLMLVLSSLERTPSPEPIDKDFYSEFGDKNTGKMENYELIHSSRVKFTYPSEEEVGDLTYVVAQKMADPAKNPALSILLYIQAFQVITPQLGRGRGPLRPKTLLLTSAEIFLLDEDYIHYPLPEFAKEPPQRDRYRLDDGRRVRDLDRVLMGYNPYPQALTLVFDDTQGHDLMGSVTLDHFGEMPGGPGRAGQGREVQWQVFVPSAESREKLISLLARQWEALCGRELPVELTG
Chain of Beta-1 adrenergic receptor (P08588 whole entry): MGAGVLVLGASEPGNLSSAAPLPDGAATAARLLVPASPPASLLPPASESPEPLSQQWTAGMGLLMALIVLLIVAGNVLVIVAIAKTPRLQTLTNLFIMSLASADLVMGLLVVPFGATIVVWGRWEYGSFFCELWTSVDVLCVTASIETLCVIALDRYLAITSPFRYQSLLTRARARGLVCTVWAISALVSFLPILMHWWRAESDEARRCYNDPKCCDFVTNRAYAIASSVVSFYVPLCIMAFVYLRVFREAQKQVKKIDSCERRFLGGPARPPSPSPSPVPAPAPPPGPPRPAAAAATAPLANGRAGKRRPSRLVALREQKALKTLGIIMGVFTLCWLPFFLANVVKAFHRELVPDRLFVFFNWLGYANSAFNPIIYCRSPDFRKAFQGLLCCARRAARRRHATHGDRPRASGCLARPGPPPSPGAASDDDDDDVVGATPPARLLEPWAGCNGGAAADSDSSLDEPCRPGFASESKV

| SMILES | Ki [1] [nM] | Ki (Nischarin) [nM] | Ki [2] | Ki [3] [nM] | Ki [4] | Ki [5] [nM] | Ki [6] [nM] |
| --- | --- | --- | --- | --- | --- | --- | --- |
| Cc1cccc([C@@H](C)c2cnc[nH]2)c1C | 1000 | 50.1 | 15.1 nM and 2.51 nM | – | – | – | – |
| NC1=NC2(CCc3ccccc3C2)CO1 (centres undefined) [S18616] | 1000 | 79.4 | – | 0.251 | 0.562 nM and 0.631 nM and 0.316 nM | 1000 | 1000 |
